pEC50: −log10 of the molar value. ≈ marks a conversion by molar mass, not a printed value. Calls of active or inactive are those of the source. No cut-off for these calls is given here.
Legend:
[1] = target: T1, Sphingosine 1-phosphate receptor 3 (Homo sapiens, UniProt Q99500); test: Agonist activity at human S1P3 receptor expressed in CHO cells coexpressing chimeric Gq/i5 G-protein assessed as Ca2+ release by FLIPR assay relative to 0.2 uM S1P; format: functional, cell-based
[2] = target: T1, Sphingosine 1-phosphate receptor 3; test: Agonist activity at human S1P3 receptor expressed in CHO cells coexpressing chimeric Gq/i5 G-protein assessed as Ca2+ release by FLIPR assay; format: functional, cell-based
[3] = target: T2, Sphingosine 1-phosphate receptor 1 (Homo sapiens, UniProt P21453); test: Agonist activity at eGFP-tagged human S1P1 receptor expressed in U2OS cells assessed as receptor internalization after 1 hr by Hoechst dye-based microscopic analysis relative to 1 uM 1-(4-(6-benzylbenzofuran-2-yl)-3-fluorobenzyl)azetidine-3-carboxylic acid; format: functional, cell-based
Rattus norvegicus [4] = test: Immunomodulatory activity in Lewis rat assessed as peripheral lymphocyte reduction at 1 mg/kg, po after 24 hrs; format: functional; parameters: scale not given: the % may be the effect or the level left
Plasma [5] = test: Plasma concentration in Lewis rat at 1 mg/kg, po; format: ADME, organism-based; parameters: dose 1 mg/kg, route oral; conditions: in vivo
[6] = target: T2, Sphingosine 1-phosphate receptor 1; test: Agonist activity at eGFP-tagged human S1P1 receptor expressed in U2OS cells assessed as receptor internalization after 1 hr by Hoechst dye-based microscopic analysis; format: functional, cell-based
rat MDR1 [7] = test: Efflux ratio of permeability across pig LLC-PK1 cells expressing rat MDR1; format: ADME, cell-based, Sus scrofa
Rattus norvegicus [8] = test: Immunomodulatory activity in Lewis rat assessed as peripheral lymphocyte reduction at 0.1 mg/kg, po after 24 hrs relative to control; format: functional
[9] = target: T3, Voltage-gated inwardly rectifying potassium channel KCNH2 (Homo sapiens, UniProt Q12809); test: Inhibition of human Erg by electrophysiology assay
[10] = Fraction unbound in human plasma; format: ADME, cell-free
Cytochrome P450 2D6 [11] = target: T4, Cytochrome P450 2D6 (Homo sapiens, UniProt P10635); test: Induction of CYP2D6; format: ADME
Cytochrome P450 2D6 [12] = target: T4, Cytochrome P450 2D6; test: Inhibition of CYP2D6; format: ADME
[13] = Volume of distribution at steady state in Sprague-Dawley rat at 1 mg/kg, iv and 3 mg/kg, po; format: ADME, organism-based; conditions: in vivo, read-out: Vdss
rat MDR1 [14] = test: Permeability from apical to basolateral side in pig LLC-PK1 cells expressing rat MDR1; format: ADME, cell-based, Sus scrofa; conditions: read-out: permeability
Cytochrome P450 3A4 [15] = target: T5, Cytochrome P450 3A4 (Homo sapiens, UniProt P08684); test: Inhibition of CYP3A4; format: ADME
Rattus norvegicus [16] = test: Immunomodulatory activity in Lewis rat assessed as peripheral lymphocyte reduction at 1 mg/kg, po after 24 hrs relative to control; format: functional; parameters: scale not given: the % may be the effect or the level left
[17] = target: T3, Voltage-gated inwardly rectifying potassium channel KCNH2; test: Binding affinity to human Erg
[18] = Solubility of the compound in 0.01 N HCl; format: physicochemical; conditions: buffer
[19] = Solubility of the compound in phosphate buffer saline; format: physicochemical
[20] = Solubility of the compound in simulated intestinal fluid; format: physicochemical; conditions: simulated gi fluid
Rattus norvegicus [21] = test: Immunomodulatory activity in Lewis rat assessed as peripheral lymphocyte reduction at 0.3 mg/kg, po after 24 hrs relative to control; format: functional; parameters: scale not given: the % may be the effect or the level left
[22] = Clearance in Sprague-Dawley rat at 1 mg/kg, iv and 3 mg/kg, po; format: ADME, organism-based; conditions: in vivo
Cytochrome P450 3A4 [23] = target: T5, Cytochrome P450 3A4; test: Induction of CYP3A4; format: ADME
[24] = Mean residence time in Sprague-Dawley rat at 1 mg/kg, iv and 3 mg/kg, po; format: ADME, organism-based; conditions: in vivo
[25] = Oral bioavailability in Sprague-Dawley rat at 3 mg/kg; format: ADME, organism-based; conditions: in vivo
[26] = Fraction unbound in rat plasma; format: ADME, cell-free
Plasma [27] = test: Plasma concentration in Lewis rat at 0.1 mg/kg, po; format: ADME, organism-based; parameters: dose 0.1 mg/kg, route oral; conditions: in vivo

T1 sequence (Q99500 whole entry): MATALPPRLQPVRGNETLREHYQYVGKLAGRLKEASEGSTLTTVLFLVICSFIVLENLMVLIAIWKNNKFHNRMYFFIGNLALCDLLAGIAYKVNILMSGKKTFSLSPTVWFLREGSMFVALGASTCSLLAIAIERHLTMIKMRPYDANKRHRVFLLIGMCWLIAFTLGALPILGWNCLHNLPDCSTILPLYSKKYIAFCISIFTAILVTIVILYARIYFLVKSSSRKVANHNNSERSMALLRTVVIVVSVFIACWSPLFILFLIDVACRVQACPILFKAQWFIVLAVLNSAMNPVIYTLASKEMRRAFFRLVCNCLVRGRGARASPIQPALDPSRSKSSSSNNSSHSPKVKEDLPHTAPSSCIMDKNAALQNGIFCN
T2 sequence (P21453 whole entry): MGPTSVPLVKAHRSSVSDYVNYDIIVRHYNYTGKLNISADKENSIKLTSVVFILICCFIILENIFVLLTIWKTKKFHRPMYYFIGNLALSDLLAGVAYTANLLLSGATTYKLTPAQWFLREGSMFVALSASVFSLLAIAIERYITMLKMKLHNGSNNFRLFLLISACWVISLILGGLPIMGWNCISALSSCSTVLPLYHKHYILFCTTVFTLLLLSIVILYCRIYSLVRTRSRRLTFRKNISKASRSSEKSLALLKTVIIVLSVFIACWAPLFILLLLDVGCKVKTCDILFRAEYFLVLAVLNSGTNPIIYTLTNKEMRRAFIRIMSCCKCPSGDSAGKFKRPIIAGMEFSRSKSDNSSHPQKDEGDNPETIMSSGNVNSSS
T5 sequence (P08684 whole entry): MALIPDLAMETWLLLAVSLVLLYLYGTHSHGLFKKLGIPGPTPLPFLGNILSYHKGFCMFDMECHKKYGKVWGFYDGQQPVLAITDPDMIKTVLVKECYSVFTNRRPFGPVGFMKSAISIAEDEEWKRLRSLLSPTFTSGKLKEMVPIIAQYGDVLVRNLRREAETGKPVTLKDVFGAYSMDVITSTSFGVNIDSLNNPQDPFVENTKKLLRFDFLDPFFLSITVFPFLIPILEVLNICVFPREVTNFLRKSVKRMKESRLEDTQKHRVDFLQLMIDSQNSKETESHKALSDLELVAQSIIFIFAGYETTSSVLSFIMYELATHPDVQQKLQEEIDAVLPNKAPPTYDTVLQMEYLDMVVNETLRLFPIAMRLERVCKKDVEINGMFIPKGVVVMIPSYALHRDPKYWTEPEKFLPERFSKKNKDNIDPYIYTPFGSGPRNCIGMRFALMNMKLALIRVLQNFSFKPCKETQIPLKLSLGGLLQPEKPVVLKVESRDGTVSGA
T3 sequence (Q12809 whole entry): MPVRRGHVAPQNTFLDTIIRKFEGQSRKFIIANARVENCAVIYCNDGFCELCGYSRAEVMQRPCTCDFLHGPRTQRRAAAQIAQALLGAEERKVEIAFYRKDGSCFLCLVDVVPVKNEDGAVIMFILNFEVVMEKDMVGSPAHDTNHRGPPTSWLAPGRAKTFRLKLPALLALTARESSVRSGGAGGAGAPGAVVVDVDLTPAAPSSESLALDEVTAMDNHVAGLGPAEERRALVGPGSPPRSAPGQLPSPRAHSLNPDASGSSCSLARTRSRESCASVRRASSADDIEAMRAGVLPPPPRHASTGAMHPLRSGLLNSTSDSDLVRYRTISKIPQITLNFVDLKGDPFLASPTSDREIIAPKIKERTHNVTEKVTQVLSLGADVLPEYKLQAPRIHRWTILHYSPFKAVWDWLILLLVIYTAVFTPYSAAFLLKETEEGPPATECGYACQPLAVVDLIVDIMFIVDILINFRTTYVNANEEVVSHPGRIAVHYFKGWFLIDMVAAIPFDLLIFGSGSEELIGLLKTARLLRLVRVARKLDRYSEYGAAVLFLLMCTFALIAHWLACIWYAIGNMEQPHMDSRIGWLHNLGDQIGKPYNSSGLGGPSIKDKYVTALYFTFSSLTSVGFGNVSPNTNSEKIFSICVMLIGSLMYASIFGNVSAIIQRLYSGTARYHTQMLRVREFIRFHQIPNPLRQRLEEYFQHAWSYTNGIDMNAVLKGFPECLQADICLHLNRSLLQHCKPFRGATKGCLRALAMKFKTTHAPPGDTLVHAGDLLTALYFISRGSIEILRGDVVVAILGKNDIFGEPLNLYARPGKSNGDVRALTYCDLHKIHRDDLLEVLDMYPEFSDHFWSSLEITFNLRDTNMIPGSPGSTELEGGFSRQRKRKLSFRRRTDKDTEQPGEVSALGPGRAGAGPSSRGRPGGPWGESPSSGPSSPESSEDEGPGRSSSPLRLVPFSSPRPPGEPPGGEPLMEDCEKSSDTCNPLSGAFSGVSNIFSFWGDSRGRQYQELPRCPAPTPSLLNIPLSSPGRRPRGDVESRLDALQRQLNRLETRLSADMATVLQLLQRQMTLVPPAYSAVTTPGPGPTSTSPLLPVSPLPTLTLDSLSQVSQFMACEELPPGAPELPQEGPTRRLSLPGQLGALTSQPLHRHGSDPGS
T4 sequence (P10635 whole entry): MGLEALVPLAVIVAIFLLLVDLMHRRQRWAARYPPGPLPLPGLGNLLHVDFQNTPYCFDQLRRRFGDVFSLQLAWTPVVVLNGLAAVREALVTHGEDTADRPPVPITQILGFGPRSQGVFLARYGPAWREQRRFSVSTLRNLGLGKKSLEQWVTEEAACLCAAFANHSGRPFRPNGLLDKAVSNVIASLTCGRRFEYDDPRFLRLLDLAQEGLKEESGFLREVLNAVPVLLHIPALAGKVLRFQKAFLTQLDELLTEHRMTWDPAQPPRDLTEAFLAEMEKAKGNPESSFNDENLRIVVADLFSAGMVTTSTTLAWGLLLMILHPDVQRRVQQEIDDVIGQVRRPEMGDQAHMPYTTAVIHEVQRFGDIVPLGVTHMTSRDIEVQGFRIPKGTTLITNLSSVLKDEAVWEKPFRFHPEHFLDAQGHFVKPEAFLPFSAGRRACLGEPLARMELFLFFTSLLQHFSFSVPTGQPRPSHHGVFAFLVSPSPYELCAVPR

Row | Compound | pEC50 [2] | Efficacy [3] | Activity (Rattus norvegicus [4]) | Cp (Plasma [5]) | pEC50 [6] | other results
1 | N[C@H](CC(=O)O)C(=O)Nc1ccc(-c2nc3ccc(C4(c5ccccc5)CC4)nc3s2)c(F)c1 | 6.08 | 100% | 0% | 2 ng/mL |  | Efficacy [1]: 31%
2 | N[C@@H](CC(=O)O)C(=O)Nc1ccc(-c2nc3ccc(C4(c5ccccc5)CC4)nc3s2)c(F)c1 | 5.95 | 134% | 0% | 1 ng/mL | 9.30 | Efficacy [1]: 35%
3 | O=C(O)CCc1ccc(-c2nc3ccc(C4(c5ccccc5)CC4)nc3s2)c(F)c1 | < 4.60 | 81% |  |  |  | 
4 | O=C(O)CCC(=O)Nc1ccc(-c2nc3ccc(C4(c5ccccc5)CC4)nc3s2)c(F)c1 | 5.25 | 80% |  |  | 7.72 | Efficacy [1]: 39%
5 | N[C@H](CCc1ccc(-c2nc3ccc(C4(c5ccccc5)CC4)nc3s2)c(F)c1)C(=O)O | < 5.60 | 128% | 55% | 5 ng/mL | 9.52 | 
6 | Nc1ccc(-c2nc3ccc(C4(c5ccccc5)CC4)nc3s2)c(F)c1 | < 4.60 | 92% |  |  | 6.91 | 
7 | NCc1ccc(-c2nc3ccc(C4(c5ccccc5)CC4)nc3s2)c(F)c1 | < 5.60 | 113% |  |  | 7.82 | 
8 | O=C(O)CCNCc1ccc(-c2nc3ccc(C4(c5ccccc5)CC4)nc3s2)c(F)c1 | < 4.60 | 96% | 27% | 12 ng/mL | 8.52 | 
9 | O=C(O)CCCCc1ccc(-c2nc3ccc(C4(c5ccccc5)CC4)nc3s2)c(F)c1 | < 4.60 | 103% |  |  | 5.62 | 
10 | O=C(O)CCNc1ccc(-c2nc3ccc(C4(c5ccccc5)CC4)nc3s2)c(F)c1 | < 5.60 | 94% |  |  | 7.38 | 
11 | N[C@H](CC(=O)Nc1ccc(-c2nc3ccc(C4(c5ccccc5)CC4)nc3s2)c(F)c1)C(=O)O | < 5.60 | 110% | 0% | 4 ng/mL | 8.70 | 
12 | NCCCc1ccc(-c2nc3ccc(C4(c5ccccc5)CC4)nc3s2)c(F)c1 | < 5.60 | 121% |  |  | 8.10 | 
13 | O=C(O)c1ccc(-c2nc3ccc(C4(c5ccccc5)CC4)nc3s2)c(F)c1 | < 4.60 | 105% |  |  | 5.55 | 
14 | N[C@@H](CCc1ccc(-c2nc3ccc(C4(c5ccccc5)CC4)nc3s2)c(F)c1)C(=O)O | < 5.60 | 115% | 22% | 2 ng/mL | 9.30 | 
15 | O=C(O)CNCCc1ccc(-c2nc3ccc(C4(c5ccccc5)CC4)nc3s2)c(F)c1 | 5.84 | 102% | 15% | 1 ng/mL | 8.70 | Efficacy [1]: 11%
16 | N[C@@H](CC(=O)Nc1ccc(-c2nc3ccc(C4(c5ccccc5)CC4)nc3s2)c(F)c1)C(=O)O | < 5.60 | 102% | 4% | 8 ng/mL | 8.70 | 
17 | O=C(O)CCCc1ccc(-c2nc3ccc(C4(c5ccccc5)CC4)nc3s2)c(F)c1 | < 4.60 | 100% |  |  | 7.21 | 
18 | O=C(O)CCCNc1ccc(-c2nc3ccc(C4(c5ccccc5)CC4)nc3s2)c(F)c1 | 5.15 | 113% |  |  | 7.44 | Efficacy [1]: 18%
19 | C[C@@](N)(CCc1ccc(-c2nc3ccc(C4(c5ccccc5)CC4)nc3s2)c(F)c1)C(=O)O | < 5.60 | 114% | 71% | 10 ng/mL | 9.70 | efflux ratio (rat MDR1 [7]): 1.8; Activity (Rattus norvegicus [8]): inactive; INH [9]: > 10 µM; fraction unbound [10]: 0.037; Activity (Cytochrome P450 2D6 [11]): Not Active; inhibition (INH) (Cytochrome P450 2D6 [12]): Not Active; Vd [13]: 4.1 L/kg; Papp A→B (rat MDR1 [14]): 4 ×10⁻⁶ cm/s; inhibition (INH) (Cytochrome P450 3A4 [15]): Not Active; Activity (Rattus norvegicus [16]): 56%; Activity [17]: > 30 µM; solubility [18]: 6 ng/mL (≈ 0.013 µM); solubility [19]: < 1 ng/mL; solubility [20]: 108 ng/mL (≈ 0.234 µM); Activity (Rattus norvegicus [21]): 29%; clearance [22]: 6 mL/min/kg; Activity (Cytochrome P450 3A4 [23]): Not Active; MRT [24]: 11.4 h; bioavailability [25]: 16%; fraction unbound [26]: 0.039
20 | Fc1ccccc1-c1nc2ccc(C3(c4ccccc4)CC3)nc2s1 | < 4.60 | 98% |  |  | 7.35 | 
21 | NCCc1ccc(-c2nc3ccc(C4(c5ccccc5)CC4)nc3s2)c(F)c1 | < 4.60 | 155% |  |  | 6.32 | 
22 | O=C(O)CNCc1ccc(-c2nc3ccc(C4(c5ccccc5)CC4)nc3s2)c(F)c1 | 5.81 | 103% | 37% | 7 ng/mL | 8.52 | Efficacy [1]: 17%
23 | O=C(O)C1CN(Cc2ccc(-c3nc4ccc(C5(c6ccccc6)CC5)nc4s3)c(F)c2)C1 |  |  | 71% | 116 ng/mL |  | Activity (Rattus norvegicus [8]): 65%; Efficacy [1]: 26%; Papp A→B (rat MDR1 [14]): 14.6 ×10⁻⁶ cm/s; Cp (Plasma [27]): 10 ng/mL; solubility [18]: 3 ng/mL (≈ 0.00653 µM); solubility [19]: 7 ng/mL (≈ 0.0152 µM); solubility [20]: 65 ng/mL (≈ 0.141 µM)
24 | CN(CCC(=O)O)Cc1ccc(-c2nc3ccc(C4(c5ccccc5)CC4)nc3s2)c(F)c1 | < 4.60 | 153% |  |  | 6.71 | 
25 | O=C(O)CCCNCc1ccc(-c2nc3ccc(C4(c5ccccc5)CC4)nc3s2)c(F)c1 | < 5.60 | 128% |  |  | 6.75 | 
26 | C[C@](N)(CCc1ccc(-c2nc3ccc(C4(c5ccccc5)CC4)nc3s2)c(F)c1)C(=O)O | < 5.60 | 93% | 15% | 6 ng/mL | 8.52 | 

— ChEMBL document CHEMBL1949573, “Isoform-selective thiazolo[5,4-b]pyridine S1P1 agonists possessing acyclic amino carboxylate head-groups” (Bioorg Med Chem Lett, 2012)
